Drawing on ChEMBL document CHEMBL4421728, “Bach1 Inhibitors in Combination with Nrf2 Activators and Pharmaceutical Compositions Thereof” (2017), this text covers Activity and fold change (FC) for four compounds.

Test [1] has as its target T1, Transcription regulator protein BACH1 (Homo sapiens) (UniProt O14867).
T1 sequence (whole entry): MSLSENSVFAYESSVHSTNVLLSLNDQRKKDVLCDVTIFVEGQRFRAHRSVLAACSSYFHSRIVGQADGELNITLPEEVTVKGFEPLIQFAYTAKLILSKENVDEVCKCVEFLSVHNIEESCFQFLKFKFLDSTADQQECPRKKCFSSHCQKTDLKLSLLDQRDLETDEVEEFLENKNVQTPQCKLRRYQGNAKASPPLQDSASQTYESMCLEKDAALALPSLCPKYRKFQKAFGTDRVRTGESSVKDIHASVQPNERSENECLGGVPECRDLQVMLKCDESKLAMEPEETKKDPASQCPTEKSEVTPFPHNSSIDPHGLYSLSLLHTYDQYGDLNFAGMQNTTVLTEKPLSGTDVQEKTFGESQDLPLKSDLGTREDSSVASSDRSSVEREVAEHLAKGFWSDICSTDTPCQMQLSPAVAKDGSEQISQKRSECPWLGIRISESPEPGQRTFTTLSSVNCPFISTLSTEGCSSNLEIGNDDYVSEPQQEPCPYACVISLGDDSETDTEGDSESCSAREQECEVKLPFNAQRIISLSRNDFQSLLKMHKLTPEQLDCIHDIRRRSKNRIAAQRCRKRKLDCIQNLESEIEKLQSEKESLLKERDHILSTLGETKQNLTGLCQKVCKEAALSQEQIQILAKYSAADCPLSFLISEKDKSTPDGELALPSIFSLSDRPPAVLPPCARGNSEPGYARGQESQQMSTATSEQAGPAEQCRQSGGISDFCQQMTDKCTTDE
Kind of test: Inhibition of Bach1 in normal human lung fibroblasts assessed as induction of HMOX protein expression by measuring HMOX positive cells level at 0.019 uM in presence of 10 uM Nrf2 activator DMF incubated for 16 to 18 hrs by immunostaining relative to control DMSO. Also noted: scale not given: the % may be the effect or the level left.

Test [2] has as its target T1, Transcription regulator protein BACH1 (Homo sapiens). Kind of test: Inhibition of Bach1 in normal human lung fibroblasts assessed as induction of HMOX protein expression by measuring HMOX positive cells level at 0.019 uM in presence of 0.03 uM Nrf2 activator DMF incubated for 16 to 18 hrs by immunostaining relative to control DMSO. The arrangement: scale not given: the % may be the effect or the level left.

Test [3] shares this target. As to the kind of experiment: Inhibition of Bach1 in normal human lung fibroblasts assessed as induction of HMOX protein expression at 0.019 uM in presence of 30 uM Nrf2 activator DMF incubated for 16 to 18 hrs by immunostaining relative to control.
The target is the same in test [4]. Kind of test: Inhibition of Bach1 in normal human lung fibroblasts assessed as induction of HMOX protein expression by measuring HMOX positive cells level at 0.019 uM in presence of 3 uM Nrf2 activator DMF incubated for 16 to 18 hrs by immunostaining relative to control DMSO. Also noted: scale not given: the % may be the effect or the level left.
The target is the same in test [5]. As to the kind of experiment: Inhibition of Bach1 in normal human lung fibroblasts assessed as induction of HMOX protein expression at 2.5 uM incubated for 16 to 18 hrs in presence of 0.039 uM Nrf2 activator Bardoxolone methyl by immunostaining relative to control.
For test [6] the target is unchanged. Kind of test: Inhibition of Bach1 in normal human lung fibroblasts assessed as induction of HMOX protein expression at 0.156 uM incubated for 16 to 18 hrs in presence of 0.039 uM Nrf2 activator Bardoxolone methyl by immunostaining relative to control.
Test [7] has the same target. Kind of test: Inhibition of Bach1 in normal human lung fibroblasts assessed as induction of HMOX protein expression at 0.312 uM incubated for 16 to 18 hrs in presence of 0.0048 uM Nrf2 activator Bardoxolone methyl by immunostaining relative to control.
For test [8] the target is unchanged. Kind of test: Inhibition of Bach1 in normal human lung fibroblasts assessed as induction of HMOX protein expression at 2.5 uM incubated for 16 to 18 hrs in presence of 0.156 uM Nrf2 activator Bardoxolone methyl by immunostaining relative to control.
Test [9] shares this target. Kind of test: Inhibition of Bach1 in normal human lung fibroblasts assessed as induction of HMOX protein expression at 0.019 uM incubated for 16 to 18 hrs in presence of 0.0024 uM Nrf2 activator Bardoxolone methyl by immunostaining relative to control.
Test [10] shares this target. As to the kind of experiment: Inhibition of Bach1 in normal human lung fibroblasts assessed as induction of HMOX protein expression at 0.078 uM incubated for 16 to 18 hrs in presence of 0.039 uM Nrf2 activator Bardoxolone methyl by immunostaining relative to control.
The target is the same in test [11]. Kind of test: Inhibition of Bach1 in normal human lung fibroblasts assessed as induction of HMOX protein expression at 2.5 uM incubated for 16 to 18 hrs in presence of 0.0097 uM Nrf2 activator Bardoxolone methyl by immunostaining relative to control.
For test [12] the target is unchanged. As to the kind of experiment: Inhibition of Bach1 in normal human lung fibroblasts assessed as induction of HMOX protein expression at 0.039 uM incubated for 16 to 18 hrs in presence of 0.039 uM Nrf2 activator Bardoxolone methyl by immunostaining relative to control.
Test [13] shares this target. Kind of test: Inhibition of Bach1 in normal human lung fibroblasts assessed as induction of HMOX protein expression at 0.156 uM incubated for 16 to 18 hrs in presence of 0.078 uM Nrf2 activator Bardoxolone methyl by immunostaining relative to control.
Test [14] has the same target. As to the kind of experiment: Inhibition of Bach1 in normal human lung fibroblasts assessed as induction of HMOX protein expression at 1.25 uM incubated for 16 to 18 hrs by immunostaining relative to control.
Test [15] shares this target. As to the kind of experiment: Inhibition of Bach1 in normal human lung fibroblasts assessed as induction of HMOX protein expression at 0.078 uM incubated for 16 to 18 hrs in presence of 0.0048 uM Nrf2 activator Bardoxolone methyl by immunostaining relative to control.
For test [16] the target is unchanged. Kind of test: Inhibition of Bach1 in normal human lung fibroblasts assessed as induction of HMOX protein expression at 1.25 uM incubated for 16 to 18 hrs in presence of 0.0024 uM Nrf2 activator Bardoxolone methyl by immunostaining relative to control.
Test [17] shares this target. Kind of test: Inhibition of Bach1 in normal human lung fibroblasts assessed as induction of HMOX protein expression at 0.156 uM incubated for 16 to 18 hrs in presence of 0.019 uM Nrf2 activator Bardoxolone methyl by immunostaining relative to control.
The target is the same in test [18]. As to the kind of experiment: Inhibition of Bach1 in normal human lung fibroblasts assessed as induction of HMOX protein expression at 0.312 uM incubated for 16 to 18 hrs in presence of 0.312 uM Nrf2 activator Bardoxolone methyl by immunostaining relative to control.
Test [19] shares this target. Kind of test: Inhibition of Bach1 in normal human lung fibroblasts assessed as induction of HMOX protein expression at 0.312 uM incubated for 16 to 18 hrs in presence of 0.0024 uM Nrf2 activator Bardoxolone methyl by immunostaining relative to control.
For test [20] the target is unchanged. Kind of test: Inhibition of Bach1 in normal human lung fibroblasts assessed as induction of HMOX protein expression at 0.019 uM incubated for 16 to 18 hrs in presence of 0.039 uM Nrf2 activator Bardoxolone methyl by immunostaining relative to control.

As to `Cn1c(Nc2nc3ccc(C(F)(F)F)cc3s2)nc2cc(C(=O)NCCOCCO)ccc21`, the Activity in test [1] stood at 96.1%; in [2] it was 4.94%; in [4] it was 80.2%. Also, the fold change (FC) in [3] came out at 4.9.
For `CN(C)C(=O)CNC(=O)c1ccc2c(c1)nc(Nc1nc3ccc(C(F)(F)F)cc3s1)n2C` the same measures were 94.2%, 1.18%, 51.5% and 4.65.
For the compound `CNC(=O)c1ccc2c(c1)nc(Nc1nc3ccc(OC(F)(F)F)cc3s1)n2C`, the fold change (FC) in test [5] was found to be 14.7; in [6] it was 17.6; in [7], 13.6; in [8], 12.5; in [9] it was 3.24; in test [10], 17.8. Also, the fold change (FC) in [11] is 19.4; in [12], 14.7; in test [13] it was 18.4; in test [14] it was 16.2; in test [15], 4.72; in test [16] it was 16.1. Besides, the fold change (FC) was 15.9 in test [17], 17.4 in test [18], 11.7 in test [19] and 15.9 in test [20].
Turning to `COCCNC(=O)c1cnc2c(c1)nc(Nc1nc3ccc(OC(F)(F)F)cc3s1)n2C`, the Activity in test [1] is 92.6%; in test [2], 1.8%; in [4] it was 54.6%. The fold change (FC) in [3] was determined as 4.23.
